Data published in PubChem BioAssay AID1919007 (Molecular Pharmacology Branch, DTP, NCI, 2023).

Tested on: A498 complex spheroids with HUVEC/MSC, growth
Test: Anticancer human tumor A498 cell line growth inhibition [AhR];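 also: seven day exposure starting three days after spheroid seeding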;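 as to viability, T/C: luminescence signal used as a surrogate for viable cells; luminescence viability scaled so 100% equals DMSO vehicle wells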
Conditions: for IC50: curve of first compound; for viability, T/C: stronger effect = lower value
Excerpt: Multicellular complex tumor spheroid response to aryl hydrocarbon receptor antagonists in combination with a variety of drugs and investigational agents in selected tumor cell lines
The current study was undertaken to assess response to aryl hydrocarbon receptor antagonists in combination with standard-of-care drugs and investigational agents in solid tumor complex spheroid models. Complex spheroids include a stromal component modeled by human endothelial cells (HUVEC) and fibroblasts modeled by human mesenchymal stem cells (MSCs). The concentration ranges selected for each drug and investigational agent were based upon clinically achievable concentrations if the clinical Cmax of the agent was known.
Compounds. The drugs and investigational agents: BAY 2416964 (NSC825713), GNF351 (NSC835774), CH-223191 (NSC835775), CPI-455 (NSC825282), aza-TdCyd (NSC777586), decitabine (NSC127716), belinostat (NSC758774), entinostat (NSC756642), pevonedistat (NSC761192), tazemetostat (NSC777109), talazoparib (NSC765396), olaparib (NSC753686), selinexor (NSC780203), nedisertib (M3814, NSC802822), bortezomib (NSC756655), venetoclax (NSC766270), doxorubicin (NSC123127), elimusertib (BAY189344, NSC800525), ceralasertib (AZD6738, NSC777638), TAK-243 (NSC785004), alisertib (NSC759677), etoposide (NSC141540), topotecan (NSC609699), eribulin (NSC707389), gemcitabine (NSC613327), carboplatin (NSC241240), cisplatin (NSC119875), and SN-38 (NSC673596) were obtained from the National Cancer Institute (NCI) Developmental Therapeutics Program Chemical Repository (32). The FDA-approved anticancer drug set is available from the Developmental Therapeutics Program at https://dtp.cancer.gov/organization/dscb/obtaining/available plates.htm. […] The stock solutions were prepared in dimethyl sulfoxide (DMSO, Sigma-Aldrich, St. Louis, MO, cat. D2650), except for the platinum compounds which were prepared in saline (Quality Biological, Gaithersburg, MD, cat. 114-055-101), at 800-fold the tested concentration and stored at -70 degrees C prior to their use. All drugs and investigational agents were tested over a range starting from a high concentration at or near the clinical Cmax and decreasing in half-log increments. If the clinical Cmax for an agent had not been determined, the highest concentration tested was 10 microM (Table 1).
Cell Culture. All cells were maintained in an incubator at 37 degrees C and 5% CO2 with 95% humidity. The PDC lines were cultured according to standard operating procedures established by the NCI PDMR (https://pdmr.cancer.gov). Briefly, all PDCs were thawed and cultured in Matrigel-coated flasks prepared with a working solution of 1X Ham's F-12 nutrient mix, without supplementation (Invitrogen, Waltham, MA, cat. 11765054), 100 U/mL penicillin-streptomycin (Invitrogen, cat. 15140122), and 2.5% Matrigel (Corning Inc., Corning, NY, cat. 354248) for the first three passages. All PDCs were cultured in complete DMEM/F-12 media containing advanced DMEM/F-12 (Invitrogen, cat. 12634028), 4.9% defined fetal bovine serum, heat inactivated (HyClone Laboratories Inc., Logan, UT, cat. SH30070.03HI), 389 ng/mL hydrocortisone (Sigma-Aldrich, cat. H4001), 9.7 ng/mL human EGF recombinant protein (Invitrogen, cat. PHG0313), 23.4 microg/mL adenine (Sigma-Aldrich, cat. A2786), 97.3 U/mL penicillin-streptomycin (Invitrogen, cat. 15140122), 1.9 mM L-glutamine (Invitrogen, cat. 25030081), and 9.7 microM Y-27632 dihydrochloride (Tocris Bioscience, Bristol, United Kingdom, cat. 1254). The PDCs were cultured in complete DMEM/F12 media without 10 microM Y-27632 dihydrochloride for at least two passages prior to the screen. The established cell lines NCI-H1341 and […] were cultured in DMEM/F-12, HEPES (Invitrogen, cat. 11330032), 5% defined fetal bovine serum (HyClone Laboratories Inc., cat. SH30070.03), ITS premix universal culture supplement [insulin (5 microg/mL), transferrin (5 microg/mL), and selenious acid (5 ng/mL)] […]

[1] = second compound 0.1 µM, first compound 0.0316 µM
[2] = second compound 0.1 µM, first compound 0.1 µM
[3] = second compound 0.1 µM, first compound 0.316 µM
[4] = second compound 0.1 µM, first compound 1 µM
[5] = second compound 0.1 µM, first compound 3.16 µM
[6] = second compound 0.1 µM, first compound 10 µM
[7] = second compound 0.316 µM, first compound 0.0316 µM
[8] = second compound 0.316 µM, first compound 0.1 µM
[9] = second compound 0.316 µM, first compound 0.316 µM
[10] = second compound 0.316 µM, first compound 1 µM
[11] = second compound 0.316 µM, first compound 3.16 µM
[12] = second compound 0.316 µM, first compound 10 µM
[13] = second compound 1 µM, first compound 0.0316 µM
[14] = second compound 1 µM, first compound 0.1 µM
[15] = second compound 1 µM, first compound 0.316 µM
[16] = second compound 1 µM, first compound 1 µM
[17] = second compound 1 µM, first compound 3.16 µM
[18] = second compound 1 µM, first compound 10 µM
[19] = second compound 3.16 µM, first compound 0.0316 µM
[20] = second compound 3.16 µM, first compound 0.1 µM
[21] = second compound 3.16 µM, first compound 0.316 µM
[22] = second compound 3.16 µM, first compound 1 µM
[23] = second compound 3.16 µM, first compound 3.16 µM
[24] = second compound 3.16 µM, first compound 10 µM
[25] = second compound 10 µM, first compound 0.0316 µM
[26] = second compound 10 µM, first compound 0.1 µM
[27] = second compound 10 µM, first compound 0.316 µM
[28] = second compound 10 µM, first compound 1 µM
[29] = second compound 10 µM, first compound 3.16 µM
[30] = second compound 10 µM, first compound 10 µM

Nc1ccccc1NC(=O)c1ccc(CNC(=O)OCc2cccnc2)cc1 + CC(CO)NC(=O)c1cc(-c2ccc(Cl)cc2)nn(-c2cnn(C)c2)c1=O
IC50 (second compound 0.1 µM): 0.963 µM
IC50 (second compound 0.316 µM): 0.799 µM
IC50 (second compound 1 µM): 0.766 µM
IC50 (second compound 3.16 µM): 0.703 µM
IC50 (second compound 10 µM): 0.322 µM
viability, T/C [1]: 89.4%
viability, T/C [2]: 88.8%
viability, T/C [3]: 77.7%
viability, T/C [4]: 44.6%
viability, T/C [5]: 24.5%
viability, T/C [6]: 1.98%
viability, T/C [7]: 79.5%
viability, T/C [8]: 85.8%
viability, T/C [9]: 74%
viability, T/C [10]: 39.5%
viability, T/C [11]: 23.2%
viability, T/C [12]: 2.07%
viability, T/C [13]: 75%
viability, T/C [14]: 75%
viability, T/C [15]: 78.5%
viability, T/C [16]: 39.2%
viability, T/C [17]: 23%
viability, T/C [18]: 4.91%
viability, T/C [19]: 64.5%
viability, T/C [20]: 73.8%
viability, T/C [21]: 71.4%
viability, T/C [22]: 38.1%
viability, T/C [23]: 20.2%
viability, T/C [24]: 1.92%
viability, T/C [25]: 58.2%
viability, T/C [26]: 53.1%
viability, T/C [27]: 55.1%
viability, T/C [28]: 28.7%
viability, T/C [29]: 14.5%
viability, T/C [30]: 0.8%

O=C(c1cc(Cc2n[nH]c(=O)c3ccccc23)ccc1F)N1CCN(C(=O)C2CC2)CC1 + CC(CO)NC(=O)c1cc(-c2ccc(Cl)cc2)nn(-c2cnn(C)c2)c1=O
IC50 (second compound 0.1 µM): > 10 µM
IC50 (second compound 0.316 µM): > 10 µM
IC50 (second compound 1 µM): > 10 µM
IC50 (second compound 3.16 µM): > 10 µM
IC50 (second compound 10 µM): > 10 µM
viability, T/C [1]: 105%
viability, T/C [2]: 93.3%
viability, T/C [3]: 102%
viability, T/C [4]: 84.6%
viability, T/C [5]: 94.6%
viability, T/C [6]: 85.3%
viability, T/C [7]: 97%
viability, T/C [8]: 106%
viability, T/C [9]: 99.9%
viability, T/C [10]: 81.2%
viability, T/C [11]: 87.4%
viability, T/C [12]: 81.7%
viability, T/C [13]: 99%
viability, T/C [14]: 96.6%
viability, T/C [15]: 94.6%
viability, T/C [16]: 77.9%
viability, T/C [17]: 87.2%
viability, T/C [18]: 79.9%
viability, T/C [19]: 91.3%
viability, T/C [20]: 81.7%
viability, T/C [21]: 83.5%
viability, T/C [22]: 77.2%
viability, T/C [23]: 79%
viability, T/C [24]: 70.3%
viability, T/C [25]: 71.7%
viability, T/C [26]: 67.6%
viability, T/C [27]: 69.1%
viability, T/C [28]: 61.6%
viability, T/C [29]: 64.1%
viability, T/C [30]: 62%
